Data as given in ChEMBL document CHEMBL5380808, “Design, Synthesis, and Biological Activity of Marinacarboline Analogues as STAT3 Pathway Inhibitors for Docetaxel-Resistant Triple-Negative Breast Cancer” (J Med Chem, 2023).
Activity calls are given as the source filed them. No cut-off for these calls is given here.

Columns and labels:
[1] = Synergistic antiproliferative activity against docetaxel-resistant human MDA-MB-231-DTR cells assessed as combination index at 8 uM incubated for 72 hrs in presence of 4 uM of docetaxel by Chou-Talalay method; assay type: functional
MDA-MB-231 [2] = test: Antiproliferative activity against human MDA-MB-231 cells assessed as reduction in cell viability incubated for 72 hrs by MTT assay; assay type: functional, cell-based; conditions: MDA-MB-231, 72 h
MDA-MB-231 [3] = test: Induction of cell cycle arrest at G2/M phase in docetaxel-resistant human MDA-MB-231-DTR cells assessed as downregulation of c-Myc expression level at 2.5 to 10 uM incubated for 36 hrs by Western blot analysis; assay type: functional, cell-based; conditions: dose 2.5-10 µM
[4] = Induction of cell cycle arrest in docetaxel-resistant human MDA-MB-231-DTR cells assessed as accumulation at S phase at 5 uM incubated for 36 hrs by PI staining based flow cytometry analysis (reference value: 11.57%); assay type: functional
[5] = Induction of cell cycle arrest in docetaxel-resistant human MDA-MB-231-DTR cells assessed as accumulation at S phase at 5 uM incubated for 36 hrs by PI staining based flow cytometry analysis (reference value: 10.56%); assay type: functional
[6] = Induction of cell cycle arrest in docetaxel-resistant human MDA-MB-231-DTR cells assessed as accumulation at subG1 phase at 5 uM incubated for 36 hrs by PI staining based flow cytometry analysis (reference value: 0.52%); assay type: functional
[7] = Induction of cell cycle arrest in docetaxel-resistant human MDA-MB-231-DTR cells assessed as accumulation at G0/G1 phase at 10 uM incubated for 36 hrs by PI staining based flow cytometry analysis (reference value: 74.77%); assay type: functional
[8] = Antiproliferative activity against […] cells assessed as reduction in cell viability incubated for 72 hrs by MTT assay; assay type: functional, cell-based
MDA-MB-231 [9] = test: Induction of apoptosis in docetaxel-resistant human MDA-MB-231-DTR cells assessed as downregulation of survivin expression level at 2.5 to 10 uM incubated for 48 hrs by Western blot analysis; assay type: functional, cell-based; conditions: dose 2.5-10 µM
[10] = Induction of cell cycle arrest in docetaxel-resistant human MDA-MB-231-DTR cells assessed as accumulation at G0/G1 phase at 2.5 uM incubated for 36 hrs by PI staining based flow cytometry analysis (reference value: 74.77%); assay type: functional
[11] = Selectivity index, ratio of IC50 for cytotoxicity against human MRC5 cells to IC50 for antiproliferative activity against human MDA-MB-231 cells; assay type: toxicity, cell-based; conditions: MRC5 cells and MDA-MB-231 cells, read-out: Ratio IC50
[12] = Induction of cell cycle arrest in docetaxel-resistant human MDA-MB-231-DTR cells assessed as accumulation at subG1 phase at 5 uM incubated for 24 hrs by PI staining based flow cytometry analysis (reference value: 0.41%); assay type: functional
[13] = Induction of cell cycle arrest in docetaxel-resistant human MDA-MB-231-DTR cells assessed as accumulation at G0/G1 phase at 5 uM incubated for 36 hrs by PI staining based flow cytometry analysis (reference value: 74.77%); assay type: functional
MDA-MB-231 [14] = test: Antitumor activity against docetaxel-resistant human MDA-MB-231-DTR cells xenografted in BALB/c mouse assessed as tumor growth inhibition at 10 mg/kg, ip daily for 12 days; assay type: functional, organism-based; conditions: time 12.0 day
MDA-MB-231 [15] = test: Induction of cell cycle arrest at G2/M phase in docetaxel-resistant human MDA-MB-231-DTR cells assessed as downregulation of Cdc25C expression level at 2.5 to 10 uM incubated for 36 hrs by Western blot analysis; assay type: functional, cell-based; conditions: dose 2.5-10 µM
[16] = Induction of cell cycle arrest in docetaxel-resistant human MDA-MB-231-DTR cells assessed as accumulation at subG1 phase at 5 uM incubated for 36 hrs by PI staining based flow cytometry analysis (reference value: 0.41%); assay type: functional
MDA-MB-231 [17] = test: Antitumor activity against docetaxel-resistant human MDA-MB-231-DTR cells xenografted in BALB/c mouse assessed as downregulation of phosphorylated STAT3 level in tumor tissue at 10 mg/kg, ip daily for 12 days by Immunohistochemical analysis; assay type: functional, organism-based; conditions: time 12.0 day
[18] = Induction of apoptosis in docetaxel-resistant human MDA-MB-231-DTR cells assessed as increase in total cell death at 5 uM incubated for 48 hrs by Annexin V-FITC and PI staining based flow cytometry; assay type: functional
[19] = Cytotoxicity against human MRC5 cells assessed as reduction in cell viability incubated for 72 hrs by sulforhodamine B assay; assay type: toxicity, cell-based
[20] = Induction of apoptosis in docetaxel-resistant human MDA-MB-231-DTR cells assessed as increase in total cell death at 10 uM incubated for 48 hrs by Annexin V-FITC and PI staining based flow cytometry; assay type: functional
MDA-MB-231 [21] = test: Inhibition of cell migration in docetaxel-resistant human MDA-MB-231-DTR cells assessed as downregulation of vimentin expression level at 3 to 6 uM incubated for 24 hrs by Western blot analysis; assay type: functional, cell-based; conditions: dose 3-6 µM
[22] = Induction of cell cycle arrest in docetaxel-resistant human MDA-MB-231-DTR cells assessed as accumulation at G2/M phase at 10 uM incubated for 36 hrs by PI staining based flow cytometry analysis (reference value: 13.16%); assay type: functional
[23] = Induction of cell cycle arrest in docetaxel-resistant human MDA-MB-231-DTR cells assessed as accumulation at G2/M phase at 5 uM incubated for 12 hrs by PI staining based flow cytometry analysis (reference value: 13.54%); assay type: functional
MDA-MB-231 [24] = test: Inhibition of cell migration in docetaxel-resistant human MDA-MB-231-DTR cells at 3 to 6 uM incubated for 24 hrs by microscopy based wound healing assay; assay type: functional; conditions: dose 3-6 µM
[25] = Induction of cell cycle arrest in docetaxel-resistant human MDA-MB-231-DTR cells assessed as accumulation at subG1 phase at 5 uM incubated for 48 hrs by PI staining based flow cytometry analysis (reference value: 0.41%); assay type: functional
[26] = Antiproliferative activity against docetaxel-resistant human MDA-MB-231-DTR cells assessed as reduction in cell viability incubated for 72 hrs by sulforhodamine B assay; assay type: functional, cell-based; conditions: MDA-MB-231, 72 h
MDA-MB-231 [27] = test: Induction of apoptosis in docetaxel-resistant human MDA-MB-231-DTR cells assessed as downregulation of Bcl2 expression level at 2.5 to 10 uM incubated for 48 hrs by Western blot analysis; assay type: functional, cell-based; conditions: dose 2.5-10 µM
[28] = Synergistic antiproliferative activity against docetaxel-resistant human MDA-MB-231-DTR cells assessed as combination index at 4 uM incubated for 72 hrs in presence of 4 uM of docetaxel by Chou-Talalay method; assay type: functional
MDA-MB-231 [29] = test: Inhibition of cell migration in docetaxel-resistant human MDA-MB-231-DTR cells assessed as downregulation of N-cadherin expression level at 3 to 6 uM incubated for 24 hrs by Western blot analysis; assay type: functional, cell-based; conditions: dose 3-6 µM
MDA-MB-231 [30] = test: Antitumor activity against docetaxel-resistant human MDA-MB-231-DTR cells xenografted in BALB/c mouse assessed as downregulation of Ki67 level in tumor tissue at 10 mg/kg, ip daily for 12 days by Immunohistochemical analysis; assay type: functional, organism-based; conditions: time 12.0 day
[31] = Synergistic antiproliferative activity against docetaxel-resistant human MDA-MB-231-DTR cells assessed as combination index at 8 uM incubated for 72 hrs in presence of 1 uM of docetaxel by Chou-Talalay method; assay type: functional

With `O=C(NCCc1c[nH]c2ccccc12)c1cc2c([nH]c3ccccc32)c(C(=O)c2ccc(Br)cc2)n1` the CI [1] was 0.32, the IC50 (MDA-MB-231 [2]) was 2.98 µM and the Activity (MDA-MB-231 [3]) was “Active”. The Activity [4] was 20.82%, the Activity [5] was 14.21% and the Activity [6] was 1.81%. For the same compound, the Activity [7] was 51.09%, the IC50 [8] was 3.24 µM and the Activity (MDA-MB-231 [9]) was “Active”. The Activity [10] was 62.36%, the selectivity ratio [11] was 10.7 and the Activity [12] was 1.75%. The Activity [13] was 51.37%, the Activity (MDA-MB-231 [14]) was “Active” and the Activity (MDA-MB-231 [15]) was “Active”. The Activity [16] was 4.35%, the Activity (MDA-MB-231 [17]) was “Active” and the Activity [18] was 18.79%. For the same compound, the IC50 at 72 h [19] was 33.2 µM, the Activity [20] was 61.85% and the inhibition (MDA-MB-231 [21]) was “Active”. The Activity [22] was 29.72%, the Activity [23] was 17.91% and the inhibition (MDA-MB-231 [24]) was “Dose-Dependent Effect”. The Activity [25] was 19.53%, the IC50 [26] was 2.96 µM and the Activity (MDA-MB-231 [27]) was “Active”. For the same compound, the CI [28] was 0.37, the inhibition (MDA-MB-231 [29]) was “Active” and the Activity (MDA-MB-231 [30]) was “Active”. The CI [31] was 0.66.
